The values that follow come from patent US8716347B2, “Tramadol for the treatment of functional gastrointestinal disorders” (Euro-Celtique S.A., priority 2000, dated 2014).

Counter-ions that a name gives are not always drawn.

For one series, the system named is gut transit time. Conditions: in vivo; cited from earlier work.
Series [1] relates to functional gastrointestinal disorder (diarrhoea with abdominal pain). The series is described as follows: Treatment of patients with abdominal pain and diarrhoea with normal release tramadol (case reports). The class given is in vivo, human. Conditions: 50 mg normal release twice daily.
Series [2] relates to patients started on tramadol pain therapy. Conditions: initially when started on tramadol pain therapy; cited from earlier work.
[3] abbreviates: Example 2: person with abdominal pain and diarrhoea.

`CN(C)CCCN1c2ccccc2CCc2ccccc21` [imipramine]: in the series on gut transit time, the “effect on gut transit time” value was “increase gut transit time”.

For the compound `COc1cccc(C2(O)CCCCC2CN(C)C)c1` (stereo not shown) [tramadol hydrochloride], the “bowel movements after treatment” value in series [1] (Example 1: person, long term chronic refractory diarrhoea) was “normal bowel movements”. Besides, in series [1] (Example 1: person, severe persistent abdominal pain), the “abdominal pain after treatment” value is on record as “absence of pain”.

Take `COc1cccc(C2(O)CCCCC2CN(C)C)c1` (stereo not shown) [tramadol, 2-[(Dimethylamino)methyl]-1-(3-methoxyphenyl)cyclohexanol]: in series [1] (setting [3]), the “abdominal pain after treatment” value is listed as “relief of pain” and the “bowel movements after treatment” value is reported as “normal bowel movements”. For the same compound, the side effect entry in series [1] (Example 2: person) is “some drowsiness”. In addition, the “proportion of patients suffering nausea and vomiting” value in series [2] is “one third and a half”.
